Publication PMC10755728, “Inhibitors of the Elastase LasB for the Treatment of Pseudomonas aeruginosa Lung Infections” (ACS Central Science, 2023)
Read-outs that look alike come from different tables or passages of the source.

Experiments:
LasB [1] = target: T1, LasB (Pseudomonas aeruginosa, UniProt Q02RJ6); experiment: biochemical; assay type: biochemical
T1 construct: made in house

[2] = Lipophilicity determination (LogD7.4, HPLC-MS); assay type: physicochemical; details: for chromatographic logD: pH 7.4, pH 7.4, chromatographic
Protocol: Lipophilicity determination. LogD7.4 was analyzed using an HPLC−MS based method.50 The retention time of 12 compounds with known LogD7.4 was determined and plotted toward their LogD7.4. Linear regression was used to determine the LogD7.4 of unknown compounds. Analysis was performed using a Dionex Ultimate 3000 HPLC system coupled to a TSQ Quantum Access MAX (Thermo Fisher, Dreieich, Germany) with the following conditions: EC150/2 NUCLEODUR C18 Pyramid column, 5 μM (Macherey Nagel, Düren, Germany); eluent A: 50 mM NH4OAc pH 7.4, eluent B: acetonitrile, and flow: 0.6 mL/min.

[3] = Metabolic stability in mouse liver S9 fraction; assay type: in vitro ADME
[4] = Metabolic stability in human liver S9 fraction; assay type: in vitro ADME
Plasma stability, mouse = assay type: in vitro ADME; details: for half-life: C57BL6, mouse, pooled plasma, species profiling, read-out: Plasma T1/2 Mouse (C57BL6); for half-life at 1 μM: mouse plasma, read-out: Plasma T1/2 Mouse
[5] = Microsomal stability, mouse liver microsomes; assay type: in vitro ADME; details: C57BL6, mouse, pooled liver microsomes
[6] = Microsomal stability, rat liver microsomes; assay type: in vitro ADME; details: Wistar, pooled liver microsomes
[7] = Microsomal stability, minipig liver microsomes; assay type: in vitro ADME; details: Göttingen, pooled liver microsomes
Plasma stability, rat = assay type: in vitro ADME; details: Wistar, pooled plasma, species profiling, read-out: Plasma T1/2 Rat (Wistar)
[8] = Plasma stability, minipig; assay type: in vitro ADME; details: Göttingen, pooled plasma, species profiling, read-out: Plasma T1/2 Minipig (Göttingen)
Calu-3 permeability = assay type: in vitro ADME; details: human
MMP-1 = target: T2, MMP-1 (Homo sapiens, UniProt P03956); experiment: MMP-1 inhibition assay; assay type: biochemical; details: 100 μM; read-out: % inhibition MMP-1
T2 construct: purchased AnaSpec (Fremont, CA, USA)
T2 sequence (P03956 100-469): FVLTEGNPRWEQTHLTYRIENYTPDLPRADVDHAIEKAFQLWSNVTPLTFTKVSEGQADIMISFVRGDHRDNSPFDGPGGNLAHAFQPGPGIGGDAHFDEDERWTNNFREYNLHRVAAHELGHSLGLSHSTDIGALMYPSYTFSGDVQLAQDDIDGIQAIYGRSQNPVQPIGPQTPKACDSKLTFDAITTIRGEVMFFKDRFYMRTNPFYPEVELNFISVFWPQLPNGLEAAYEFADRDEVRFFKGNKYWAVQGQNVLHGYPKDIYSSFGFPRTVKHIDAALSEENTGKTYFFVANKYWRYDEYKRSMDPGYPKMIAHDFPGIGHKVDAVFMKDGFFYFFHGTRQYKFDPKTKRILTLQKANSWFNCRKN

MMP-2 = target: T3, MMP-2 (Homo sapiens, UniProt P08253); experiment: MMP-2 inhibition assay; assay type: biochemical; details: 100 μM; read-out: % inhibition MMP-2
T3 construct: purchased AnaSpec (Fremont, CA, USA)
T3 sequence (P08253 110-660): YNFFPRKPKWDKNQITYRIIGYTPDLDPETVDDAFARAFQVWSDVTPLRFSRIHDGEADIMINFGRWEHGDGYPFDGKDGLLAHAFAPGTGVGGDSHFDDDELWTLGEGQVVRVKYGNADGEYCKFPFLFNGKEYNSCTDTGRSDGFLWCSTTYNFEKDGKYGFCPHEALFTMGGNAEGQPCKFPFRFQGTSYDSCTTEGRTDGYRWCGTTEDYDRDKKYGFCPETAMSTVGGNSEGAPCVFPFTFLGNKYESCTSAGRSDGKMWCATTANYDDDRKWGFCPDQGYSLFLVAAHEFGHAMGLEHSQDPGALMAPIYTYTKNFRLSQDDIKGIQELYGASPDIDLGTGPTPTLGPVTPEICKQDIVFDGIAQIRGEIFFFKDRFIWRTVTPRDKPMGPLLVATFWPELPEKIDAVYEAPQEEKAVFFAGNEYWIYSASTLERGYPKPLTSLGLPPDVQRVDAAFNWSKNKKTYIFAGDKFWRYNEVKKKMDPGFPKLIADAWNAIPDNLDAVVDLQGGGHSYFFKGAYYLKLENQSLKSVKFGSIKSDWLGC

MMP-3 = target: T4, MMP-3 (Homo sapiens, UniProt P08254); experiment: MMP-3 inhibition assay; assay type: biochemical; details: 100 μM; read-out: % inhibition MMP-3
T4 construct: purchased AnaSpec (Fremont, CA, USA)

HDAC-3 = target: T5, HDAC-3 (Homo sapiens, UniProt O15379); experiment: HDAC-3 inhibitor screening kit; assay type: biochemical
T5 construct: purchased Sigma-Aldrich (Saint Louis, MO)

HDAC-8 = target: T6, HDAC-8 (Homo sapiens, UniProt Q9BY41); experiment: HDAC-8 inhibitor screening kit; assay type: biochemical
T6 construct: purchased Sigma-Aldrich (Saint Louis, MO)
T6 sequence (Q9BY41 1-377): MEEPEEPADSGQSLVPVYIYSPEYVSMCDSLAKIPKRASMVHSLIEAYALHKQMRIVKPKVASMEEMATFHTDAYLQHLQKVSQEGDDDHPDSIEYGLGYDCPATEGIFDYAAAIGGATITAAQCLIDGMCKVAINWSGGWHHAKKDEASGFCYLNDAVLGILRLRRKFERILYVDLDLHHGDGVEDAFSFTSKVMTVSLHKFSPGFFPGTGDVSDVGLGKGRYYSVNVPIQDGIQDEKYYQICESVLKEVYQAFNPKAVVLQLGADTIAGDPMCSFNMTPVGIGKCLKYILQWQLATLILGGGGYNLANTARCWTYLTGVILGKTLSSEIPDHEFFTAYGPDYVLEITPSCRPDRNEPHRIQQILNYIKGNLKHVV

COX-1 = target: T7, COX-1 (Ovis aries, UniProt P05979); experiment: Fluorometric COX-1 inhibitor assay; assay type: biochemical, human
T7 construct: purchased Abcam (Cambridge, UK)
T7 sequence (P05979 25-600): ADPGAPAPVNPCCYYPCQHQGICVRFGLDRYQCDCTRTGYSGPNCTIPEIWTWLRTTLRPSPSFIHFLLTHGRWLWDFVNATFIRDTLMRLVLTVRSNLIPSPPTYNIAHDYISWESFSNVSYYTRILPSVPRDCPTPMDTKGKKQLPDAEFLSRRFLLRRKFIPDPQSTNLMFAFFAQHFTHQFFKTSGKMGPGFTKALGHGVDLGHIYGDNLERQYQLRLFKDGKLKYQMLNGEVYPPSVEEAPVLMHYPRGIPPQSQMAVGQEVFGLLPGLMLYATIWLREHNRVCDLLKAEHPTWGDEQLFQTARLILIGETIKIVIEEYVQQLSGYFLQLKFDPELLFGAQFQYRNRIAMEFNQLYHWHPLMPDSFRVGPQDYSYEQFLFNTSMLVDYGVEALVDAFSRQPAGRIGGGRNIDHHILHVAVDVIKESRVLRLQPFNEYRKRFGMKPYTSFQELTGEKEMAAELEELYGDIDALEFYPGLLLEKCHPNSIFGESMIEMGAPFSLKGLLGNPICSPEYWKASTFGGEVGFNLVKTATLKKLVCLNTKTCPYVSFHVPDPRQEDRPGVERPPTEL

HepG2 = details: human, 48 h, 100 µM
Protocol: (§1) Culturing of HepG2, A549 and HEK293 cells. The human hepatocellular carcinoma cell line HepG2, the lung adenocarcinoma cell line A549 and Human Embryonic (HEK) 293 cells were cultured in Dulbecco's Modified Eagle Medium (DMEM), containing 10% Fetal Bovine Serum
(§2) (FBS) and 1% penicillin-streptomycin mixture. Cells were maintained according to standard cell
(§3) Cytotoxicity assay. An MTT-based assay was employed to evaluate the viability of HepG2,
(§4) HEK293 and A549 cells after challenge with selected LasB inhibitors and performed as described

HEK293 = details: human, 48 h, 100 µM
Protocol: as §1, §2, §3, §4

[9] = mouse, in vivo
LasB [10] = assay type: in vivo, mouse; details: compared to the vehicle group; 4b 10 mg/kg TID, levofloxacin 25 mg/kg
P. aeruginosa DSM-1117 = experiment: Neutropenic lung infection model (PD study); details: neutropenic mice, 24 h; 4b 10 mg/kg TID nebulized, levofloxacin 25 mg/kg IP
Protocol: For the therapeutic neutropenic
pneumonia model, female CD-1 mice, 8-weeks-old, (Charles River, Germany) were rendered
neutropenic by administration of 150 mg/kg and 100 mg/kg cyclophosphamide i.p. on day –4 and
–1, respectively. The inoculum was prepared as follows: on day -1 the P. aeruginosa strain DSM-
single colony was inoculated into LB medium (diluted 1:6 in water) containing 0.01% mucin and
incubated at 120 rpm and 37 °C.
washed twice in 0.9 % NaCl-solution. Then they were adjusted to an OD of 10. For infection with
P. aeruginosa an inoculum of 1.2x10^9 cfu/mL was used. At d0 mice were infected by nebulization
using an Aeroneb® nebulizer (Kent Scientific) of 20 µL 1.2x10^9 CFU/ml P. aeruginosa DSM-
To control bacterial burden after nebulization, two animals were used as inoculum control
group. The following groups were used: (1) vehicle control group, (2) levofloxacin group wit h
mg/kg inhaled TID (t= 2, 6 and 10 h) combined with levofloxacin at 25 mg/kg IP QD (t= 2 h p.i.).
After isolation of blood, lung was
removed, weighed, and homogenized in 3 mL 0.9% NaCl. For de termination of CFUs, suspensions
of homogenized organs were serially diluted, plated on agar plates and incubated overnight at 37
°C. CFUs were determined by manual counting.

TACE = target: T8, TACE (Homo sapiens, UniProt P78536); experiment: TACE inhibitor screening kit; assay type: biochemical; details: 100 μM; read-out: % inhibition TACE
T8 construct: purchased Sigma-Aldrich (Saint Louis, MO)

ColH-PD = ColH-PD (Hathewaya histolytica, UniProt Q46085); experiment: biochemical; assay type: biochemical, Clostridium histolyticum; details: read-out: % inhibition ColH-PD @1 µM
P. aeruginosa PA14 = experiment: Bacterial growth inhibition assay; assay type: cell-based, Pseudomonas aeruginosa; details: Pseudomonas aeruginosa, PA14; 100 µM compound concentration; read-out: Percent (%) growth inhibition of P. aeruginosa PA14
Protocol: Bacterial growth inhibition assay. Assays regarding the determination of the MIC were
performed as described recently for P. aeruginosa PA14.58

3D lung organoids = experiment: Lung organoid assay; assay type: cell-based, human
[11] = system: Eurofins SafetyScreen44 panel; experiment: Off-target SafetyScreen44 panel; details: 10 μM
Text: Then, we assessed potential additional safety liabilities of 4a and 4b using the Eurofins SafetyScreen44 panel to identify the most important off-target interactions at an early stage. […] Furthermore, to gain a deeper insight into the potential clinical applicability, we investigated the toxicity of compounds in vivo on zebrafish embryos.
Off-Target Safety Screen44TM Panel.
Eurofins Cerep, according to their guidelines.
their Standard Operating Procedures.
Zebrafish embryo toxicity.

zebrafish embryos = experiment: Zebrafish embryo toxicity
Protocol: Zebrafish embryo toxicity. The experiment was performed according to a procedure described
in the literature55 with minor modifications using zebrafish embryos of the AB wild-type line at 1
day post fertilization (dpf).

[12] = system: A549 cells treated with P. aeruginosa PAO1 and PA14 supernatants; experiment: A549 cells challenged with P. aeruginosa culture supernatants; details: PAO1 or PA14 csn
Protocol: Cells were maintained according to standard cell
PA14 csn production. The csn of wt PA14 and ΔlasB PA14 was produced as we previously
Validation of the effect of LasB inhibitors on A549 cells in vitro. The experiment was performed
as described previously.32 The Picrosirius red assay was performed by washing the csn-challenged
cells (± inhibitor) 3x with PBS followed by an incubation with Bouin solution (Sigma) at RT for
20 min. The cells were incubated with 0.1% Picrosirius red dye (ab150681) at RT for 2 h. Then,
they were washed once with 0.01 N HCl, and the matrix was dissolved in 0.01 N NaOH. The
absorption was measured at 570 nm using a PHERAstar plate reader (BMG Labtech). By dividing
the absorbance of each sample by the absorbance of the healthy sample, the relative collagen
quantity was determined. For each condition, the experiment was performed three times. To
determine the rescue of A549 cells treated with 5% wt PA14 csn using our compounds, the LasB
inhibitors were used at 2, 0.5, 0.1 and 0.05 µM. The compounds were incubated in F12K medium,
Cell detachment was then evaluated, and a Trypan Blue cell
cells/well were seeded into a flat bottom 96-well plate (Corning™ Costar™) and incubated at 37
were tested against 10% (v/v) P. aeruginosa PAO1 csn diluted in DMEM starting from 10 µM
and 20 µM, respectively. Compound was initially dissolved in DMSO, and a low final assay
concentration of 0.5% (v/v) was applied to minimize the proteolytic effect of DMSO on the
bacterial culture supernatant. In addition, cells were challenged with 10% (v/v) of ΔlasB PAO1 to

[13] = FRET-based assay, read-out: LasB IC50

T1 sequence (Q02RJ6 198-498): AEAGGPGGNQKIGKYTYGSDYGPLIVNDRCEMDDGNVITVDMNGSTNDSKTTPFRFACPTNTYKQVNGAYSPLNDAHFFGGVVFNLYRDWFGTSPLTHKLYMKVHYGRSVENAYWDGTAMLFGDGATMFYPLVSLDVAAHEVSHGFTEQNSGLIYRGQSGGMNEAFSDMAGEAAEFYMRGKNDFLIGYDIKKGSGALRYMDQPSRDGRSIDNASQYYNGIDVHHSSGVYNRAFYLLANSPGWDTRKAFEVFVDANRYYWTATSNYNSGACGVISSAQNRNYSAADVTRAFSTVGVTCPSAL
T5 sequence (O15379 whole entry): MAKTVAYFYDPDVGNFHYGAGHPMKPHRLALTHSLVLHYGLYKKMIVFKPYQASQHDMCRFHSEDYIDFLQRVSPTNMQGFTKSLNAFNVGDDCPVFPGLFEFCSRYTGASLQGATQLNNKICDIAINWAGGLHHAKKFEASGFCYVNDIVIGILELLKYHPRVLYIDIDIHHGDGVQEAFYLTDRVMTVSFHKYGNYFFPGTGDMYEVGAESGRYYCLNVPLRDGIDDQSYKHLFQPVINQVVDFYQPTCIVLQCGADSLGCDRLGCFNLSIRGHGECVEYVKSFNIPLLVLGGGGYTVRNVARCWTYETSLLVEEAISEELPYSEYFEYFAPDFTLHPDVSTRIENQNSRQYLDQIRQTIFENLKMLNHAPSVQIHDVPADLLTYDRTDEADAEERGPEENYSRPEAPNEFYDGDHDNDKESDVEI
T5 sequence (Q9Y618 395-489 partner limits assumed): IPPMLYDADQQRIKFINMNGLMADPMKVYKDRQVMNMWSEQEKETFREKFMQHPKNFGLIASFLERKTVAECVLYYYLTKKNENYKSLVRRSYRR
T4 sequence (P08254 100-477): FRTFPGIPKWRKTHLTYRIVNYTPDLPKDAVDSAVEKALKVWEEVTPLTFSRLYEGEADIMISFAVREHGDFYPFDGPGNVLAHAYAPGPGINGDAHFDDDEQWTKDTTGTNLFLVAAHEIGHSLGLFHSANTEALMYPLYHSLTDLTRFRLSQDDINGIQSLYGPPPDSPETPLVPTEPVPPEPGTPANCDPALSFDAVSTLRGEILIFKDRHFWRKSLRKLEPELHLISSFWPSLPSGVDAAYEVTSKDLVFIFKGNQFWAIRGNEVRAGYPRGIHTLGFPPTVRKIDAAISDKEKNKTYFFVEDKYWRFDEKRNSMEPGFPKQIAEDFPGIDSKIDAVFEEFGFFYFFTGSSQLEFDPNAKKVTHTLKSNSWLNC
T8 sequence (P78536 215-824): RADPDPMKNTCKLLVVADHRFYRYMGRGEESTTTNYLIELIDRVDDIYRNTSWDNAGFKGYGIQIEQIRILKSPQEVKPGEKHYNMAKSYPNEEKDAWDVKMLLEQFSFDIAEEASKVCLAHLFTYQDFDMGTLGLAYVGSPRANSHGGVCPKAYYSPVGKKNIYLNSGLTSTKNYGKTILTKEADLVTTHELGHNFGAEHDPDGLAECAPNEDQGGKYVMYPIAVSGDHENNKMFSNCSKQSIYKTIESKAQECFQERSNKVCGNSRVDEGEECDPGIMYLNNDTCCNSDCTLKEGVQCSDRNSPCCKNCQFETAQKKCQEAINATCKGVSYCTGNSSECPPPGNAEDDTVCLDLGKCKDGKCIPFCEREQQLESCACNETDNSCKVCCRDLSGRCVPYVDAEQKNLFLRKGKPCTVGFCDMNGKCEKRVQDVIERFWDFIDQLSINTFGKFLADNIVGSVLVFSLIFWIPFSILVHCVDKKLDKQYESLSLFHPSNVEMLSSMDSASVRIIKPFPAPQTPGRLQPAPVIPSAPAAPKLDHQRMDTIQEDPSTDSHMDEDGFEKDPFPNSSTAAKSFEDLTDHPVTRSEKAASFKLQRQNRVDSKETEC
ColH-PD, sequence (Q46085 331-721 limits assumed): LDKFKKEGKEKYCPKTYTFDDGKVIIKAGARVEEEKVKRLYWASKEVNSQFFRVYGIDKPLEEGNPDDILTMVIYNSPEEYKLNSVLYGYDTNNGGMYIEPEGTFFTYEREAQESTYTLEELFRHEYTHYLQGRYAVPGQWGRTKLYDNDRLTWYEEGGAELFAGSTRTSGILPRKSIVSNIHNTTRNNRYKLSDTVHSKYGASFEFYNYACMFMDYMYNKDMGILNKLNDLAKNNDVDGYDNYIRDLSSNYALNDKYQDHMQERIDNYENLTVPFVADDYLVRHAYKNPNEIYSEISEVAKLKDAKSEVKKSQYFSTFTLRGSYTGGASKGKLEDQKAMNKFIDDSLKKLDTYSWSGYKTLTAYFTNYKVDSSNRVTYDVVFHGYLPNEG

SMILES: CC(C)CC(C(=O)Nc1ccc(F)cc1)P(=O)(O)O (stereo not shown) [Compound 4h]
- IC50 (LasB [1]; [13]): 0.0927 ± 0.0216 µM
- fold less active than chlorine and bromine compounds (LasB [1]; vs 4i and 4j): 2 fold
- chromatographic logD [2]: -0.79
- microsomal CLint at 1 μM [3]: < 5.8 µL/min/mg
- microsomal CLint at 1 μM [4]: < 5.8 µL/min/mg
- half-life (Plasma stability, mouse): > 4 h
- half-life at 1 μM (Plasma stability, mouse): > 2.5 h
- microsomal CLint [5]: < 11.6 µL/min/mg
- microsomal CLint [6]: < 11.6 µL/min/mg
- microsomal CLint [7]: < 11.6 µL/min/mg
- half-life (Plasma stability, rat): > 4 h
- half-life [8]: > 4 h

SMILES: Cc1ccc(NC(=O)C(CC(C)C)C(=O)NO)cc1 (stereo not shown) [Compound 3g]
- fold more potent compared to the best phosphonate inhibitor (LasB [1]): 2 fold
- fold improvement of LasB activity compared to thiol hit 1 (LasB [1]; vs 1): 30 fold
- logD7.4 ([2]; pH 7.4, chromatographic): 1.81
- chromatographic logD [2]: > 1.8
- microsomal CLint at 1 μM [3]: 64 ± 10 µL/min/mg
- microsomal CLint at 1 μM [4]: < 5.8 µL/min/mg
- half-life at 1 μM (Plasma stability, mouse): > 2.5 h
- Papp at 300 min (Calu-3 permeability): 98 ± 26 nm/s
- inhibition at 100 µM (MMP-1): 29 ± 3%
- inhibition at 100 µM (MMP-2): 26 ± 2%
- inhibition at 100 µM (MMP-3): 16 ± 7%
- inhibition at 100 µM (HDAC-3): < 10%
- inhibition at 100 µM (HDAC-8): < 10%
- inhibition at 100 µM (COX-1): < 10%
- % growth inhibition HepG2 (HepG2): 26 ± 11%
- % growth inhibition HEK293 (HEK293): 12 ± 6%
- detection in ELF and lung tissue [9]: not detected

SMILES: C[C@H]1COc2c(N3CCN(C)CC3)c(F)cc3c(=O)c(C(=O)O)cn1c23 [levofloxacin, reference compound]
- LasB protein levels in blood (LasB [10]): clear reduction
- effect on bacterial burden (CFU) in lung (P. aeruginosa DSM-1117): reduced the bacterial burden back to stasis

SMILES: Cc1ccc(NC(=O)C(CC(C)C)P(=O)(O)O)cc1 (stereo not shown) [Compound 4a]
- IC50 (LasB [1]; [13]): 0.0512 ± 0.0067 µM
- IC50 (LasB [1]; LasB IC50 in presence of 1% pulmonary surfactant, 1% pulmonary surfactant): 0.123 ± 0.056 µM
- microsomal CLint at 1 μM [3]: < 5.8 µL/min/mg
- microsomal CLint at 1 μM [4]: < 5.8 µL/min/mg
- half-life (Plasma stability, mouse): > 4 h
- half-life at 1 μM (Plasma stability, mouse): > 2.5 h
- inhibition at 100 µM (HDAC-3): < 10%
- inhibition at 100 µM (HDAC-8): < 10%
- inhibition at 100 µM (TACE): < 10%
- inhibition at 100 µM (COX-1): < 10%
- inhibition at 1 µM (ColH-PD): < 10%
- microsomal CLint [5]: < 11.6 µL/min/mg
- microsomal CLint [6]: < 11.6 µL/min/mg
- microsomal CLint [7]: < 11.6 µL/min/mg
- half-life (Plasma stability, rat): > 4 h
- half-life [8]: > 4 h
- inhibition at 100 µM (P. aeruginosa PA14): < 10%
- viability of lung organoids challenged with 5% PA14 csn (3D lung organoids; 5% PA14 csn, 48 h, MTT): improved in a dose-dependent manner
- toxic effects on nontreated lung organoids (3D lung organoids; concentrations tested up to 100 μM): did not have significant toxic effects
- inhibition of SafetyScreen44 targets [11]: no significant inhibition
- Survival rate (zebrafish embryos; 12.5 µM): 100%
- Screening observations (zebrafish embryos; 12.5 µM, 3 dpf): 1 edema
- Screening observations (zebrafish embryos; 12.5 µM, 4 dpf): 1 edema
- Screening observations (zebrafish embryos; 12.5 µM, 5 dpf): 1 nsb, 1 edema
- Survival rate (zebrafish embryos; 25 µM): 100%
- Survival rate (zebrafish embryos; 50 µM): 100%
- Screening observations (zebrafish embryos; 50 µM, 3 dpf): 1 edema
- Screening observations (zebrafish embryos; 50 µM, 4 dpf): 1 edema
- Screening observations (zebrafish embryos; 50 µM, 5 dpf): 1 nsb, 1 edema
- Survival rate (zebrafish embryos; 100 μM): 100%
- Screening observations (zebrafish embryos; 100 µM, 5 dpf): 3 nsb
- maximum tolerated concentration (MTC) (zebrafish embryos; zebrafish embryos): ≥ 100 µM
- LasB-related cytotoxicity in csn-treated A549 cells [12]: dose-dependent reduction of LasB-related cytotoxicity
